Assay results taken from the CheMixHub viscosity set.

Assay: xn = mol fraction of the nth substance listed

ClCCl + CCCCO
303.15 K, 101.3 kPa
Settings	viscosity [mPa·s]
x2 = 0.036	0.4023
x2 = 0.0601	0.4082
x2 = 0.1127	0.4291
x2 = 0.1672	0.4596
x2 = 0.3142	0.5767
x2 = 0.4391	0.7209
x2 = 0.5585	0.9132
x2 = 0.6635	1.143
x2 = 0.7658	1.428
x2 = 0.8429	1.684
x2 = 0.9	1.89
x2 = 0.9566	2.105

CC(=O)O + CCCCOC(C)=O
viscosity [mPa·s], 101 kPa
Settings	298.15 K	313.15 K
x2 = 0.1025	1.003	0.811
x2 = 0.2035	0.947	0.767
x2 = 0.2989	0.887	0.724
x2 = 0.3998	0.842	0.685
x2 = 0.4907	0.811	0.671
x2 = 0.6449	0.77	0.63
x2 = 0.8015	0.729	0.599
x2 = 0.8705	0.726	0.589
x2 = 0.8886	0.723	0.592
x2 = 0.9096	0.712	0.583
x2 = 0.9315	0.698	0.58
x2 = 0.9427	0.698	0.58
x2 = 0.9605	0.696	0.574
x2 = 0.9779	0.686	0.563

CCNc1ccccc1 + CCCCOCCO
viscosity [mPa·s], 101.3 kPa
Settings	x2 = 0.1017	x2 = 0.2027	x2 = 0.3026	x2 = 0.398	x2 = 0.5004	x2 = 0.5947	x2 = 0.701	x2 = 0.7971	x2 = 0.8933
298 K	2.077	2.172	2.259	2.361	2.486	2.573	2.686	2.758	2.786
303 K	1.774	1.855	1.929	2.039	2.14	2.214	2.313	2.38	2.404
308 K	1.59	1.662	1.725	1.801	1.889	1.961	2.048	2.111	2.145
313 K	1.43	1.498	1.537	1.615	1.693	1.746	1.824	1.883	1.91
318 K	1.298	1.358	1.383	1.443	1.51	1.552	1.616	1.674	1.696

ClCCl + CCCCOCCO
298.15 K, 101.3 kPa
Settings	viscosity [mPa·s]
x1 = 0.0185	2.77
x2 = 0.0035	0.408
x2 = 0.0112	0.413
x2 = 0.0303	0.43
x2 = 0.0521	0.451
x2 = 0.1008	0.503
x2 = 0.1533	0.578
x2 = 0.2175	0.671
x2 = 0.293	0.807
x2 = 0.362	0.943
x2 = 0.4346	1.11
x2 = 0.5707	1.482
x2 = 0.6642	1.753
x2 = 0.7875	2.148
x2 = 0.9049	2.525

ClCCl + CCCCn1cc[n+](C)c1.F[B-](F)(F)F
Settings	viscosity [mPa·s]
298.15 K, 101 kPa, x1 = 0.1	84.5

ClCCl + CCCCn1cc[n+](C)c1.F[P-](F)(F)(F)(F)F
298.15 K, 101 kPa
Settings	viscosity [mPa·s]
x1 = 0.2451	88.7
x1 = 0.6462	9.51

COCC(C)OCC(C)OC (centres undefined) + CCCO
298.15 K, 101 kPa
Settings	viscosity [mPa·s]
x1 = 0.0008	1.955
x1 = 0.0409	1.775

ClCCCl + CCCO
101 kPa
Settings	viscosity [mPa·s]
293.15 K, x2 = 0.9052	1.795
298.15 K, x2 = 0.614	1.035
303.15 K, x2 = 0.1182	0.6969
303.15 K, x2 = 0.2163	0.6888
303.15 K, x2 = 0.5579	0.9007
303.15 K, x2 = 0.6721	1.034
303.15 K, x2 = 0.836	1.328
313.15 K, x2 = 0.1182	0.6089
313.15 K, x2 = 0.2163	0.6167
313.15 K, x2 = 0.326	0.6293
313.15 K, x2 = 0.5579	0.7563
313.15 K, x2 = 0.6721	0.8514
313.15 K, x2 = 0.836	1.071
323.15 K, x2 = 0.1182	0.5483
323.15 K, x2 = 0.2163	0.5488
323.15 K, x2 = 0.326	0.5542
323.15 K, x2 = 0.5579	0.6484
323.15 K, x2 = 0.6721	0.721
323.15 K, x2 = 0.836	0.8872

ClCCl + CCCO
Settings	viscosity [mPa·s]
298.15 K, 101 kPa, x2 = 0.05	0.48
298.15 K, 101 kPa, x2 = 0.1	0.535
298.15 K, 101 kPa, x2 = 0.1002	0.44
298.15 K, 101 kPa, x2 = 0.15	0.588
298.15 K, 101 kPa, x2 = 0.1991	0.487
298.15 K, 101 kPa, x2 = 0.2	0.639
298.15 K, 101 kPa, x2 = 0.2496	0.496
298.15 K, 101 kPa, x2 = 0.25	0.689
298.15 K, 101 kPa, x2 = 0.2978	0.528
298.15 K, 101 kPa, x2 = 0.3	0.74
298.15 K, 101 kPa, x2 = 0.35	0.792
298.15 K, 101 kPa, x2 = 0.3938	0.6
298.15 K, 101 kPa, x2 = 0.4	0.846
298.15 K, 101 kPa, x2 = 0.45	0.904
298.15 K, 101 kPa, x2 = 0.4603	0.668
298.15 K, 101 kPa, x2 = 0.498	0.716
298.15 K, 101 kPa, x2 = 0.5	0.966
298.15 K, 101 kPa, x2 = 0.55	1.032
298.15 K, 101 kPa, x2 = 0.589	0.843
298.15 K, 101 kPa, x2 = 0.6	1.104
298.15 K, 101 kPa, x2 = 0.65	1.182
298.15 K, 101 kPa, x2 = 0.6943	1.043
298.15 K, 101 kPa, x2 = 0.7	1.266
298.15 K, 101 kPa, x2 = 0.75	1.357
298.15 K, 101 kPa, x2 = 0.7977	1.289
298.15 K, 101 kPa, x2 = 0.8	1.455
298.15 K, 101 kPa, x2 = 0.85	1.56
298.15 K, 101 kPa, x2 = 0.8955	1.57
298.15 K, 101 kPa, x2 = 0.9	1.673
298.15 K, 101 kPa, x2 = 0.95	1.794
303.15 K, 101.3 kPa, x2 = 0.0434	0.401
303.15 K, 101.3 kPa, x2 = 0.0863	0.4085
303.15 K, 101.3 kPa, x2 = 0.1371	0.423
303.15 K, 101.3 kPa, x2 = 0.1943	0.445
303.15 K, 101.3 kPa, x2 = 0.2863	0.4936
303.15 K, 101.3 kPa, x2 = 0.3859	0.5655
303.15 K, 101.3 kPa, x2 = 0.4983	0.6748
303.15 K, 101.3 kPa, x2 = 0.5806	0.7794
303.15 K, 101.3 kPa, x2 = 0.7402	1.059
303.15 K, 101.3 kPa, x2 = 0.828	1.257
303.15 K, 101.3 kPa, x2 = 0.9016	1.447
303.15 K, 101.3 kPa, x2 = 0.9307	1.606
303.15 K, 101.3 kPa, x2 = 0.9459	1.57
303.15 K, 101.3 kPa, x2 = 0.95	1.643

CCC[N+](C)(C)C.O=S(=O)([N-]S(=O)(=O)C(F)(F)F)C(F)(F)F + CCC[N+]1(C)CCCC1.O=S(=O)([N-]S(=O)(=O)C(F)(F)F)C(F)(F)F
viscosity [mPa·s], 101.3 kPa
Settings	x1 = 0.2	x1 = 0.4	x1 = 0.6	x1 = 0.8
293.15 K	78.4	81.2	88.3	93.6
298.15 K	62.8	64.9	–	73.8
303.15 K	51.1	52.5	56.3	59.2

CCC[N+](C)(C)C.O=S(=O)([N-]S(=O)(=O)C(F)(F)F)C(F)(F)F + CCC[N+]1(C)CCCCC1.O=S(=O)([N-]S(=O)(=O)C(F)(F)F)C(F)(F)F
101.3 kPa
Settings	viscosity [mPa·s]
298.15 K, x1 = 0.8	88.1
303.15 K, x1 = 0.8	69.7
308.15 K, x1 = 0.2	78.3
308.15 K, x1 = 0.6	63.6
308.15 K, x1 = 0.8	56.2
313.15 K, x1 = 0.2	62.4
313.15 K, x1 = 0.4	56.9
313.15 K, x1 = 0.6	51.5
318.15 K, x1 = 0.2	50.5

C1CCC2=[NH+]CCCN2CC1.c1c[n-]cn1 + CCO
298.15 K, 100 kPa
Settings	viscosity [mPa·s]
x1 = 0.0998	1.95
x1 = 0.1996	3.268
x1 = 0.2995	5.15
x1 = 0.3994	7.752
x1 = 0.4994	10.78
x1 = 0.5994	14.23
x1 = 0.6995	19.14
x1 = 0.7996	23.96
x1 = 0.8998	28.78

CC(=O)O + CCO
298.15 K, 101.33 kPa
Settings	viscosity [mPa·s]
x2 = 0.0808	1.246
x2 = 0.2919	1.327
x2 = 0.3542	1.335
x2 = 0.5697	1.24
x2 = 0.6571	1.195
x2 = 0.75	1.15

CCC(=O)[O-].CC[NH+]1CCNCC1 + CCO
Settings	viscosity [mPa·s]
298.15 K, 101 kPa, x2 = 0.3033	75.85
